In ChEMBL document CHEMBL4382202, “1-(2-Hydroxybenzoyl)-thiosemicarbazides are promising antimicrobial agents targeting d-alanine-d-alanine ligase in bacterio” (Eur J Med Chem, 2018):
Converted amounts (≈) assume the structure as drawn.

Experiments:
[1] = Inhibition of full-length 6His-tagged Mycobacterium tuberculosis H37Rv Ddl expressed in Escherichia coli BL21(DE3)pLysS by UV-Vis spectrophotometric analysis
[2] = test system: Mycobacterium tuberculosis; assay: Antitubercular activity against Mycobacterium tuberculosis H37Rv; assay type: functional
Staphylococcus aureus [3] = assay: Antibacterial activity against Staphylococcus aureus ATCC 25923 after 18 to 24 hrs by microdilution assay; assay type: functional
Enterococcus faecalis [4] = assay: Antibacterial activity against Enterococcus faecalis ATCC 29212 after 18 to 24 hrs by microdilution assay; assay type: functional
[5] = biological target: T1, D-alanine--D-alanine ligase (Enterococcus faecalis (strain ATCC 700802 / V583), UniProt Q47758); assay: Inhibition of Enterococcus faecalis JH2-2 C-terminal 6His-tagged DdlB expressed in Escherichia coli LMG194 preincubated for 30 mins followed by substrate addition and measured after 20 mins by Biomol Green reagent assay
T1 sequence (Q47758 whole entry): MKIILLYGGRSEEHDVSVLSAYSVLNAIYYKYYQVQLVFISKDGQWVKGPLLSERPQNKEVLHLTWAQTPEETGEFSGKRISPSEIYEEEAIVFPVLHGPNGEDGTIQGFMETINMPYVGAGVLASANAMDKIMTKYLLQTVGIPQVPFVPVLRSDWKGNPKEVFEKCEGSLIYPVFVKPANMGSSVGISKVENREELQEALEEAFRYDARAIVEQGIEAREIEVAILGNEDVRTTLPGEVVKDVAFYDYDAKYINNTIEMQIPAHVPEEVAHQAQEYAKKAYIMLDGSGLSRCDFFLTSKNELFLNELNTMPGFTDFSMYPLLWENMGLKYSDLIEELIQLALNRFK

Enterococcus faecalis [6] = assay: Antibacterial activity against vancomycin-resistant Enterococcus faecalis BM 4390 after 18 to 24 hrs by microdilution assay; assay type: functional
Enterococcus faecalis [7] = assay: Antibacterial activity against vancomycin-resistant Enterococcus faecalis JH2-2::C1 after 18 to 24 hrs by microdilution assay; assay type: functional
Enterococcus faecalis [8] = assay: Antibacterial activity against vancomycin-resistant Enterococcus faecalis BM 4575 clinical isolate after 18 to 24 hrs by microdilution assay; assay type: functional
Staphylococcus aureus [9] = assay: Antibacterial activity against methicillin and vancomycin intermediate resistant Staphylococcus aureus MU50 after 18 to 24 hrs by microdilution assay; assay type: functional
Staphylococcus aureus [10] = assay: Antibacterial activity against methicillin and linezolid resistant Staphylococcus aureus NRS 119 clinical isolate after 18 to 24 hrs by microdilution assay; assay type: functional
Staphylococcus aureus [11] = assay: Antibacterial activity against community-acquired methicillin and erythromycin resistant Staphylococcus aureus SA 325 after 18 to 24 hrs by microdilution assay; assay type: functional
Staphylococcus aureus [12] = assay: Antibacterial activity against hospital-acquired methicillin/ciprofloxacin/moxifloxacin resistant Staphylococcus aureus SA 481 after 18 to 24 hrs by microdilution assay; assay type: functional
Staphylococcus aureus [13] = assay: Antibacterial activity against hospital-acquired methicillin and vacomycin resistant Staphylococcus aureus VRS-1 after 18 to 24 hrs by microdilution assay; assay type: functional
THP-1 = assay: Cytotoxicity against human THP1 cells assessed as decrease in cell viability at 1 to 5 times MIC after 24 hrs by trypan blue exclusion assay relative to control; assay type: cell-based; details: thp-1, 24 h
[14] = Inhibition of Bacillus cereus beta-lactamase using nitrocefin as substrate preincubated for 15 mins followed by substrate addition and measured after 60 mins by spectrophotometric analysis
[15] = biological target: Secretory phospholipase A2; assay: Inhibition of human sPLA2; assay type: protein assay
[16] = biological target: Voltage-gated inwardly rectifying potassium channel KCNH2 (Homo sapiens, UniProt Q12809); assay: Displacement of [3H]-Dofetilide from recombinant human ERG after 60 mins by scintillation counting analysis
[17] = biological target: T2, MAO-A (amine oxidase [flavin-containing] A) (Homo sapiens, UniProt P21397); assay: Inhibition of human MAOA at 10 uM using kynuramine as substrate after 20 mins by spectrophotometric analysis relative to control; details: probe kynuramine
T2 sequence (P21397 whole entry): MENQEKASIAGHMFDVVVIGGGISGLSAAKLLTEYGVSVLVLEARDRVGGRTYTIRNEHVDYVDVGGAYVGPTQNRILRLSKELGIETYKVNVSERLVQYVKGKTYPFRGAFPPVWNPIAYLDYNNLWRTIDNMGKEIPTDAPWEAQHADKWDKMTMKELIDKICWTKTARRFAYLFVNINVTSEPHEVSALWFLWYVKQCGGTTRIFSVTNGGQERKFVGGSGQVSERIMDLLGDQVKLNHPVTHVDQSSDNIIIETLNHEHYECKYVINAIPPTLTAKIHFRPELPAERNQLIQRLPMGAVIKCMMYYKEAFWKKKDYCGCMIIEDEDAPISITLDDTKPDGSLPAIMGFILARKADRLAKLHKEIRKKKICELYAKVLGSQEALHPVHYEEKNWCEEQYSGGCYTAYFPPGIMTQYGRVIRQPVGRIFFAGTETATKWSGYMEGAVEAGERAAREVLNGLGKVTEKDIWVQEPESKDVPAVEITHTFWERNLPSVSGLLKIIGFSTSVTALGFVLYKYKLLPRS

hERG (KCNH2) = hERG (KCNH2) (Homo sapiens, UniProt Q12809); assay: Displacement of [3H]-Dofetilide from recombinant human ERG at 10 uM after 60 mins by scintillation counting analysis relative to control; details: probe [3H]-dofetilide
Staphylococcus aureus [18] = assay: Bactericidal activity against Staphylococcus aureus ATCC 25923 assessed as bacterial cell killing level at 0.1 mM after 24 hrs by time kill assay; assay type: functional
[19] = biological target: T1, D-alanine--D-alanine ligase; assay: Inhibition of Enterococcus faecalis Ddl
[20] = Inhibition of 6His-tagged Staphylococcus aureus Ddl expressed in Escherichia coli M15 (pREP4) using ATP or d-alanine as substrate after 20 mins

Voltage-gated inwardly rectifying potassium channel KCNH2, sequence (Q12809 whole entry): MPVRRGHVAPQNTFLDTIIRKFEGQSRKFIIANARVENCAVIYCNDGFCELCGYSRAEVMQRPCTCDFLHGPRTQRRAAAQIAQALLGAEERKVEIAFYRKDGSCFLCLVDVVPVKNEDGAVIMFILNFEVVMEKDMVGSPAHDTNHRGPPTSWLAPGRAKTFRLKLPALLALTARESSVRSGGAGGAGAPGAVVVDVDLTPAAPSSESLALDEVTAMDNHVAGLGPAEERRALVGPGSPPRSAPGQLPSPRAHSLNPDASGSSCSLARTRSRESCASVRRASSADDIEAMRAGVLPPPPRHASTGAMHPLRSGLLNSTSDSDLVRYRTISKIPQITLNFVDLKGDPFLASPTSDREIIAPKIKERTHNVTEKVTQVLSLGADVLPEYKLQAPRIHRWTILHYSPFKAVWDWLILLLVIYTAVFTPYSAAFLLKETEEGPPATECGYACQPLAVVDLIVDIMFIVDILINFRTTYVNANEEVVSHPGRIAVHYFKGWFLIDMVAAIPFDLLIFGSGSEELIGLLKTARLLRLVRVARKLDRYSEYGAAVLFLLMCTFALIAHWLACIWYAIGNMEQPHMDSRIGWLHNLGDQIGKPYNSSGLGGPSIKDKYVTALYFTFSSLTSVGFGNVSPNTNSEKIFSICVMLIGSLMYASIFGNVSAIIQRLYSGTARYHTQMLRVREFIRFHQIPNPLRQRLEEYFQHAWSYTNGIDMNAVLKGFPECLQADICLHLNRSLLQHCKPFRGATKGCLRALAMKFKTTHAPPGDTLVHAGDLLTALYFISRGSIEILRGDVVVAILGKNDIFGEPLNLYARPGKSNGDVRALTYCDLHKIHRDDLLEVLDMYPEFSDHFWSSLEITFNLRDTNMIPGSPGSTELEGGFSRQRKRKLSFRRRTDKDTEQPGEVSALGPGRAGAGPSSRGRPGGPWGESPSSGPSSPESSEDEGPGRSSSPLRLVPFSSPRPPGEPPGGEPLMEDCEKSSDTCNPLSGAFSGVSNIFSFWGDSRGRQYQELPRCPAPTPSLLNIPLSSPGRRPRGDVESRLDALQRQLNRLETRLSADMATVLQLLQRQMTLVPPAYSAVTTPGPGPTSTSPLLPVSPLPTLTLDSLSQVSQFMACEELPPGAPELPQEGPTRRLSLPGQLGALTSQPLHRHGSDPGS
hERG (KCNH2), sequence (Q12809 whole entry): as above

SMILES | MIC (Staphylococcus aureus [3]) | MIC (Enterococcus faecalis [4]) | IC50 [5] | MIC (Enterococcus faecalis [6]) | MIC (Enterococcus faecalis [7]) | MIC (Enterococcus faecalis [8]) | MIC (Staphylococcus aureus [9]) | MIC (Staphylococcus aureus [10]) | MIC (Staphylococcus aureus [11]) | MIC (Staphylococcus aureus [12]) | MIC (Staphylococcus aureus [13]) | other results
N[C@@H]1CONC1=O [CYCLOSERINE] | 313 µM (≈ 32 µg/mL) | 1250 µM (≈ 128 µg/mL) | – | – | – | – | – | – | – | – | – | Ki [1]: 25000 nM; MIC [2]: 50 µg/mL (≈ 490 µM)
O=C(NNC(=S)Nc1ccc(Cl)c(Cl)c1)c1ccccc1O | 100 µM (≈ 35.6 µg/mL) | 50 µM (≈ 17.8 µg/mL) | 1540 nM | 50 µM (≈ 17.8 µg/mL) | 100 µM (≈ 35.6 µg/mL) | 50 µM (≈ 17.8 µg/mL) | 100 µM (≈ 35.6 µg/mL) | 50 µM (≈ 17.8 µg/mL) | 50 µM (≈ 17.8 µg/mL) | 100 µM (≈ 35.6 µg/mL) | 50 µM (≈ 17.8 µg/mL) | Activity (THP-1): 12 to 25%; IC50 [14]: 11 nM; IC50 [15]: 20000 nM; IC50 [16]: 80 nM; inhibition at 20 min, 10 µM [17]: ≤ 30%; inhibition at 1 h, 10 µM (hERG (KCNH2)): ≤ 30%; Activity (Staphylococcus aureus [18]): 99%
CCOC(=O)c1cc(Br)c2nc(-c3cccc(CN)c3)oc2c1 | – | – | – | – | – | – | – | – | – | – | – | IC50 [19]: 432000 nM
CC(C)(CCl)C(=O)Nc1ccc(C(F)(F)F)cc1 | – | – | – | – | – | – | – | – | – | – | – | Ki [20]: 4000 nM
O=C(NNC(=S)Nc1ccc(Cl)c(Cl)c1)c1ccc(I)cc1O | 100 µM (≈ 48.2 µg/mL) | > 400 µM | 930 nM | > 100 µM | > 100 µM | > 100 µM | > 100 µM | > 100 µM | > 100 µM | > 100 µM | > 100 µM | –
